Data from patent publication US9770448B1, “Compositions and methods for treatment of Bowen's disease and related diseases” (priority 2016, dated 2017).

Columns and labels:
Bowen's disease = conditions: Example 10 patient history; cited from earlier work
[1] = system: HPV- laryngeal keratinocytes; assay: In vitro chloroquine-induced killing of laryngeal keratinocytes (HPV-); assay type: cell-based, human; conditions: two days incubation, visual inspection for survival
Text: (§1) In addition to the foregoing examples, in vitro experimental data have been obtained which indicate that the compositions and methods of the present disclosure can be used in the treatment of recurrent respiratory papillomatosis (RRPRRP) disease, which is also known as laryngeal papillomatosis. RRP is caused by human papillomavirus (HPV), typically HPV6 and HPV11, and involves formation of generally nonmalignant tumors on the larynx or vocal chords, and can spread to the trachea, bronchi and lungs. HPV^+ and HPV^− laryngeal keratinocytes obtained from a recurrent respiratory papillomatosis patient were expanded on Mitomycin C-treated J2 3T3 feeder cell layers in E media with 10 uM Y27632 (ROCK inhibitor). These cells were then plated without feeder layers in 2.5 uM Y27632 and grown until they reached 90% confluency. At this point, fresh E media without Y27632 was added to the cells with increasing concentrations of chloroquine. Chloroquine concentrations used were 0 ug/ml, 2.5 ug/ml, 25 ug/ml, 250 ug/ml, 2.5 mg/ml and 25 mg/ml. Chloroquine powder (Sigma) was resuspended at 25 mg/ml in E media and was brought to pH 7 with 1N NaOH. Working dilutions were made with full E media. Cells were incubated for two days in chloroquine and then visually inspected for survival, as noted by (a) the presence of cells in the wells and (b) morphology of the cells.

[2] = system: HPV+ laryngeal keratinocytes; assay: In vitro chloroquine-induced killing of laryngeal keratinocytes (HPV+); assay type: cell-based, human; conditions: two days incubation, visual inspection for survival
Text: as §1

**Q.** With `O=C(O)C(Cl)(Cl)Cl` [TCA, trichloroacetic acid] as the compound, how does the “Outcome of earlier over the counter drug as stated by patient” value (Bowen's disease) read?
**A.** made the Bowen's disease Lesion worse

**Q.** With `CCN(CC)CCCC(C)Nc1ccnc2cc(Cl)ccc12` (racemic) [chloroquine, (RS)—N′-(7-chloroquinolin-4-yl)-N,N-diethyl-pentane-1,4-diamine] as the compound, how does the “Chloroquine concentration that cells survived” value [1] read?
**A.** 25 µg/mL

**Q.** What about the “Chloroquine concentrations at which cells were killed” value [1] of the same compound?
**A.** ≥ 250 µg/mL

**Q.** What about the “Chloroquine concentration that cells survived” value [2] of the same compound?
**A.** 25 µg/mL

**Q.** What about the “Chloroquine concentrations at which cells were killed” value [2] of the same compound?
**A.** ≥ 250 µg/mL
